Assays:
Conditions in all cases: incubation time: 72 h
MDA-MB-468 [1] = assay: normalised response (% of control), CellTox Green; higher = less cell death (100 = DMSO, 0 = benzethonium chloride kill control)
In short: (§1)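 Compound was dispensed into 384-well plates at 5 concentrations in 10-fold steps spanning a 10,000-fold range specific to that compound. Breast cancer cell lines were added as 20 µl suspension and left for 72 h before CellTox Green fluorescence (485/520 nm) and then CellTiter-Glo luminescence, read after 10 min at room temperature. Each reported value is the normalised signal at one concentration, with 0.1 % DMSO set at 100 and a positive kill control at 0 on each plate.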

MDA-MB-436 [2] = assay: as above
In short: as §1

HCC1599 [3] = assay: as above
In short: as §1

CAL-85-1 [4] = assay: as above
In short: as §1

Hs578T [5] = assay: as above
In short: as §1

HDQ-P1 [6] = assay: as above
In short: as §1

BT-474 [7] = assay: as above
In short: as §1

CAL-120 [8] = assay: as above
In short: as §1

HCC1143 [9] = assay: as above
In short: as §1

MFM-223 [10] = assay: as above
In short: as §1

MDA-MB-453 [11] = assay: as above
In short: as §1

BT-549 [12] = assay: as above
In short: as §1

MDA-MB-231 [13] = assay: as above
In short: as §1

CAL-148 [14] = assay: as above
In short: as §1

DU-4475 [15] = assay: as above
In short: as §1

HCC1937 [16] = assay: as above
In short: as §1

CAL-51 [17] = assay: as above
In short: as §1

MDA-MB-468 [18] = assay: normalised response (% of control), CellTiter-Glo; higher = more viable cells (100 = DMSO, 0 = benzethonium chloride kill control)
In short: as §1

MDA-MB-436 [19] = assay: as above
In short: as §1

HCC1599 [20] = assay: as above
In short: as §1

CAL-85-1 [21] = assay: as above
In short: as §1

Hs578T [22] = assay: as above
In short: as §1

MCF-10A [23] = assay: as above
In short: as §1

HDQ-P1 [24] = assay: as above
In short: as §1

BT-474 [25] = assay: as above
In short: as §1

CAL-120 [26] = assay: as above
In short: as §1

HCC1143 [27] = assay: as above
In short: as §1

MFM-223 [28] = assay: as above
In short: as §1

MDA-MB-453 [29] = assay: as above
In short: as §1

BT-549 [30] = assay: as above
In short: as §1

MDA-MB-231 [31] = assay: as above
In short: as §1

CAL-148 [32] = assay: as above
In short: as §1

SK-BR-3 = assay: as above
In short: as §1

DU-4475 [33] = assay: as above
In short: as §1

HCC1937 [34] = assay: as above
In short: as §1

CAL-51 [35] = assay: as above
In short: as §1

MCF-10A [36] = assay: normalised response (% of control), CellTox Green; higher = less cell death (100 = DMSO, 0 = benzethonium chloride kill control)
In short: as §1

Row | SMILES | normalised response (MDA-MB-468 [1]) | normalised response (MDA-MB-436 [2]) | normalised response (HCC1599 [3]) | normalised response (CAL-85-1 [4]) | normalised response (Hs578T [5]) | normalised response (HDQ-P1 [6]) | normalised response (BT-474 [7]) | normalised response (CAL-120 [8]) | normalised response (HCC1143 [9]) | normalised response (MFM-223 [10]) | normalised response (MDA-MB-453 [11]) | normalised response (BT-549 [12]) | normalised response (MDA-MB-231 [13]) | normalised response (CAL-148 [14]) | normalised response (DU-4475 [15]) | normalised response (HCC1937 [16]) | normalised response (CAL-51 [17]) | normalised response (MDA-MB-468 [18]) | normalised response (MDA-MB-436 [19]) | normalised response (HCC1599 [20]) | normalised response (CAL-85-1 [21]) | normalised response (Hs578T [22]) | normalised response (MCF-10A [23]) | normalised response (HDQ-P1 [24]) | normalised response (BT-474 [25]) | normalised response (CAL-120 [26]) | normalised response (HCC1143 [27]) | normalised response (MFM-223 [28]) | normalised response (MDA-MB-453 [29]) | normalised response (BT-549 [30]) | normalised response (MDA-MB-231 [31]) | normalised response (CAL-148 [32]) | normalised response (SK-BR-3) | normalised response (DU-4475 [33]) | normalised response (HCC1937 [34]) | normalised response (CAL-51 [35]) | normalised response (MCF-10A [36])
1 | NC(=O)Nc1cc(-c2cccc(F)c2)sc1C(=O)N[C@H]1CCCNC1 [AZD7762] (100 nM) | 50.3% | 83.7% | 103% | 36.1% | 64.1% | 103% | 102% | 99.8% | 82.6% | 101% | 101% | 105% | 105% | 102% | 100% | 125% | 104% | 99.3% | 92.4% | 78.5% | 59.5% | 93% | 91.6% | 95.2% | 93.7% | 95.9% | 96.8% | 104% | 83.2% | 73.4% | 88.7% | 97.9% | 99.6% | 98.4% | 97.2% | 111% | 
2 | N.N.[Cl][Pt][Cl] [Cisplatin] (100 nM) | 94.6% | 107% | 97.4% | 121% | 85.4% | 118% | 99.2% | 109% | 109% | 82.7% | 110% | 80.2% | 74% | 105% | 107% |  | 103% | 98.5% | 101% | 98.7% | 96.2% | 102% | 1.72% | 107% | 102% | 101% | 104% | 96.6% | 94.9% | 90.4% | 98.7% | 90.7% | 99.2% | 90.2% | 102% | 116% | -220%
3 | COc1cc2ncnc(Nc3ccc(F)c(Cl)c3)c2cc1NC(=O)/C=C/CN1CCCCC1 [Dacomitinib] (100 nM) | 74.8% | 96.8% | 99.1% | 80.4% | 101% | 89.4% | 70.4% | 96.7% | 102% | 100% | 87.4% | 98.9% | 109% | 97.8% | 99.5% | 92.7% | 78.7% | 87.1% | 92.1% | 110% | 61% | 101% | 38.9% | 68.6% | 94% | 99.7% | 94.9% | 105% | 72.7% | 95.4% | 97.5% | 82% | 36.1% | 96.2% | 93.3% | 112% | 94.3%
4 | CC(C)Cn1cnc2c(N)nc3ccccc3c21 [Imiquimod] (250 nM) | 119% | 107% | 97.7% | 89.3% | 54.6% | 104% | 88.2% | 99.5% | 99.4% | 92.9% | 103% | 98.3% | 102% | 76.8% | 101% | 112% | 94.4% | 97% | 101% | 104% | 97.5% | 98.7% | 104% | 97.7% | 110% | 95% | 101% | 101% | 107% | 105% | 105% | 98% | 105% | 103% | 93% | 99% | 109%
5 | N#CCNC(=O)c1ccc(-c2ccnc(Nc3ccc(N4CCOCC4)cc3)n2)cc1 [Momelotinib] (1000 nM) | 178% | 103% | 95.9% | 89.6% | 99.4% | 111% | 101% | 102% | 113% | 99.5% | 108% | 96.5% | 100% | 98.7% | 97.7% |  | 117% | 82.5% | 96.9% | 110% | 92.7% | 93% | 77% | 107% | 77.1% | 75.8% | 91.7% | 93.4% | 113% | 89.6% | 77.2% | 85% | 86.6% | 90.5% | 108% | 122% | 108%
6 | CS(=O)(=O)c1ccc(C2=C(c3ccccc3)C(=O)OC2)cc1 [Rofecoxib] (1000 nM) | 127% | 99.2% | 100% | 112% | 108% | 82% | 102% | 101% | 116% | 103% | 108% | 98.2% | 112% | 105% | 112% | 96% | 99.8% | 103% | 105% | 118% | 103% | 112% | 122% | 100% | 101% | 103% | 103% | 104% | 97% | 95.4% | 107% | 102% | 116% | 98.8% | 97% | 104% | 118%
7 | O=C(CCCCCCC(=O)Nc1ccc([C@H]2O[C@@H](CSc3nc(-c4ccccc4)c(-c4ccccc4)o3)C[C@@H](c3ccc(CO)cc3)O2)cc1)NO [Tubacin] (1000 nM) | -536% | 90.3% | 97.9% | 102% | 93.4% | 72.7% | 95.5% | 100% | 105% | 86.1% | 103% | 114% | 88.2% | 99.9% | 101% | 55.1% | 93.4% | 61.7% | 94.8% | 93.2% | 72.2% | 95.3% | 105% | 88.2% | 91.3% | 88.6% | 90.2% | 78.3% | 70.3% | 89.3% | 81.4% | 95.4% | 95.3% | 91.9% | 82.6% | 77.8% | 113%

From the supplement of paper PMC4862054
